{
  "source": "patent US20240277717A1",
  "about": "“APPLICATION OF GANCICLOVIR IN PREPAPRATION OF MEDICINE FOR TREATING ALLERGIC RHINITIS” (Union Hospital, Tongji Medical College, Huazhong University …, priority 2023, published 2024)",
  "tested_on": "AR patients",
  "experiment": "Specific cases: earlier treatment reported in the patient history",
  "type": "in vivo, human",
  "data": [
    {"substance": "Omalizumab", "values": [
      {"measurement": "nasal symptoms after earlier treatment (patient history)", "setting": "Case 4, injected, before GCV", "result": "did not ameliorate"},
      {"measurement": "nasal symptoms after earlier treatment (patient history)", "setting": "Case 5, before GCV", "result": "without any improvement"}
    ]}
  ]
}
